Measured values as given in PMC9962964, “^68Ga-Labeled [Thz^14]Bombesin(7–14) Analogs: Promising GRPR-Targeting Agonist PET Tracers with Low Pancreas Uptake” (Molecules, 2023).
Read-outs that look alike come from different tables or passages of the source.

What was measured:
PC-3 tumor xenografts [1] = test: Ex vivo biodistribution in PC-3 tumor-bearing mice; parameters: species or system NRG mice
Method: (§1) For biodistribution studies, the mice were injected with the radiotracer (2–4 MBq) via the tail vein as described above. For blocking, the mice were co-injected with 100 μg of [D-Phe^6,Leu-NHEt^13,des-Met^14]Bombesin(6–14). At 1 h post-injection, the mice were anesthetized through isoflurane inhalation and euthanized through CO2 inhalation. Blood was collected through a cardiac puncture, and organs/tissues of interest were collected, weighed, and counted using a Perkin Elmer (Waltham, MA, USA) Wizard2 2480 automatic gamma counter.

[2] = Ex vivo biodistribution in PC-3 tumor-bearing mice; parameters: species or system NRG mice; conditions: mouse; for tissue to tissue ratio at 1 h: male, NRG (NOD.Cg-Rag1^tm1Mom Il2rg^tm1Wjl/SzJ), iv, total radioactivity; for tissue uptake at 1 h: intravenous
Method: as §1

[3] = 15 min post-injection
Method: PET/CT imaging, biodistribution, and in vivo stability studies were conducted on male NOD.Cg-Rag1^tm1Mom Il2rg^tm1Wjl/SzJ (NRG) mice, following previously published procedures. The experiments were conducted according to the guidelines established by the Canadian Council on Animal Care and approved by the Animal Ethics Committee of the University of British Columbia (protocol number A20-0113, approved on 30 September 2020). […] Mice were used for PET/CT imaging and biodistribution studies when the tumor grew to 5–8 mm in diameter over around 4 weeks.
At 15 min post-injection, mice were sedated and euthanized, and urine and blood were collected. The plasma was extracted from whole blood by adding CH3CN (500 μL), vortex, centrifugation, and the separation of supernatant. The plasma and urine samples were analyzed via radio-HPLC using the conditions for quality control of these ^68Ga-labeled radioligands (Table S3).

[4] = pH 7.4
Method: Briefly, aliquots (2 μL) of the ^68Ga-labeled peptides were added into a 15 mL falcon tube containing 3 mL of n-octanol and 3 mL of 0.1 mol/L DPBS (pH 7.4). The mixture was vortexed for 1 min and then centrifuged at 3000 rpm for 15 min. Samples of the n-octanol (1 mL) and buffer (1 mL) layers were collected and measured in a gamma counter. LogD7.4 was calculated using the following equation: LogD7.4 = log10 [(counts in the n-octanol phase)/(counts in the buffer phase)].

PC-3 tumor xenografts [5] = test: PET/CT imaging of PC-3 tumor xenografts; format: in vivo, NRG mice; conditions: 1 h post-injection
Method: PET/CT imaging experiments were performed on a Siemens (Knoxville, TN) Inveon micro PET/CT scanner. The tumor-bearing mouse was injected with 3–5 MBq of ^68Ga-labeled tracer through a lateral caudal tail vein under anesthesia, followed by recovery and roaming freely in its cage during the uptake period. At 50 min post-injection, a 10 min CT scan was conducted first for the localization and attenuation correction after segmentation for reconstructing the PET images, followed by a 10 min static PET imaging acquisition.

[6] = co-injection of 100 μg [D-Phe6,Leu-NHEt13,des-Met14]Bombesin(6–14), 1 h post-injection

In the case of `CC(C)C[C@H](NC(=O)[C@H](Cc1c[nH]cn1)NC(=O)CNC(=O)[C@@H](NC(=O)[C@H](C)NC(=O)[C@H](Cc1c[nH]c2ccccc12)NC(=O)[C@H](CCC(N)=O)NC(=O)[C@@H](Cc1ccccc1)NC(=O)CN1CCC(NC(=O)CN2CCN(CC(=O)O)CCN(CC(=O)O)CCN(CC(=O)O)CC2)CC1)C(C)C)C(=O)N1CSC[C@H]1C(N)=O` [[^68Ga]Ga-TacBOMB2, metal not drawn], the Tumor/blood uptake ratio (PC-3 tumor xenografts [1]; 1 h blocked: co-injected with 100 µg of [D-Phe6,Leu-NHEt13,des-Met14]Bombesin(6-14), n = 4) is reported as 1.71 ± 0.18, the “reduction of average uptake in PC-3 tumor xenografts by co-injection of blocker” value (PC-3 tumor xenografts [1]; [6]) is reported as 85% and the “reduction of average uptake in pancreas by co-injection of blocker” value (PC-3 tumor xenografts [1]; [6]) is reported as 88%. The “reduction of average uptake in stomach by co-injection of blocker” value (PC-3 tumor xenografts [1]; [6]) was 76%, the tissue to tissue ratio at 1 h ([2]; tumor and bone, 1 h blocked: co-injected with 100 µg of [D-Phe6,Leu-NHEt13,des-Met14]Bombesin(6-14), n = 4, read-out: Tumor/bone uptake ratio) was 8.94 ± 1.49 and the tissue to tissue ratio at 1 h ([2]; tumor and bone, 1 h post-injection, n = 4, read-out: Tumor/bone uptake ratio) was 28.9 ± 18.3. It also gave a tissue to tissue ratio at 1 h ([2]; tumor and intestines, 1 h blocked: co-injected with 100 µg of [D-Phe6,Leu-NHEt13,des-Met14]Bombesin(6-14), n = 4, read-out: Tumor/intestines uptake ratio) of 3.33 ± 0.67, a tissue to tissue ratio at 1 h ([2]; tumor and intestines, 1 h post-injection, n = 4, read-out: Tumor/intestines uptake ratio) of 10.5 ± 3.06 and a tissue to tissue ratio at 1 h ([2]; tumor and kidney, 1 h blocked: co-injected with 100 µg of [D-Phe6,Leu-NHEt13,des-Met14]Bombesin(6-14), n = 4, read-out: Tumor/kidney uptake ratio) of 0.47 ± 0.04. It also gave a tissue to tissue ratio at 1 h ([2]; tumor and kidney, 1 h post-injection, n = 4, read-out: Tumor/kidney uptake ratio) of 2.46 ± 0.33, a tissue to tissue ratio at 1 h ([2]; tumor and muscle, 1 h blocked: co-injected with 100 µg of [D-Phe6,Leu-NHEt13,des-Met14]Bombesin(6-14), n = 4, read-out: Tumor/muscle uptake ratio) of 7.14 ± 1.4 and a tissue to tissue ratio at 1 h ([2]; tumor and muscle, 1 h post-injection, n = 4, read-out: Tumor/muscle uptake ratio) of 57.9 ± 32.8. It also gave a tissue to tissue ratio at 1 h ([2]; tumor and pancreas, 1 h blocked: co-injected with 100 µg of [D-Phe6,Leu-NHEt13,des-Met14]Bombesin(6-14), n = 4, read-out: Tumor/pancreas uptake ratio) of 6.22 ± 0.67, a tissue to tissue ratio at 1 h ([2]; tumor and pancreas, 1 h post-injection, n = 4, read-out: Tumor/pancreas uptake ratio) of 4.64 ± 0.77 and a tissue to tissue ratio at 1 h ([2]; tumor and whole blood, 1 h post-injection, n = 4, read-out: Tumor/blood uptake ratio) of 16.4 ± 5.64. The tissue uptake at 1 h ([2]; PC-3 tumor, 100 ug, 1 h blocked: co-injected with 100 µg of [D-Phe6,Leu-NHEt13,des-Met14]Bombesin(6-14), n = 4, read-out: PC-3 tumor uptake) was 0.92 ± 0.22 %ID/g, the tissue uptake at 1 h ([2]; PC-3 tumor, 1 h post-injection, n = 4, read-out: PC-3 tumor uptake) was 5.95 ± 0.5 %ID/g and the tissue uptake at 1 h ([2]; blood, 100 ug, 1 h blocked: co-injected with 100 µg of [D-Phe6,Leu-NHEt13,des-Met14]Bombesin(6-14), n = 4, read-out: Blood uptake) was 0.55 ± 0.19 %ID/g. It also gave a tissue uptake at 1 h ([2]; blood, 1 h post-injection, n = 4, read-out: Blood uptake) of 0.39 ± 0.12 %ID/g, a tissue uptake at 1 h ([2]; bone, 100 ug, 1 h blocked: co-injected with 100 µg of [D-Phe6,Leu-NHEt13,des-Met14]Bombesin(6-14), n = 4, read-out: Bone uptake) of 0.1 ± 0.03 %ID/g and a tissue uptake at 1 h ([2]; bone, 1 h post-injection, n = 4, read-out: Bone uptake) of 0.26 ± 0.11 %ID/g. For the same compound, the tissue uptake at 1 h ([2]; brain, 100 ug, 1 h blocked: co-injected with 100 µg of [D-Phe6,Leu-NHEt13,des-Met14]Bombesin(6-14), n = 4, read-out: Brain uptake) was 0.02 %ID/g, the tissue uptake at 1 h ([2]; brain, muscle, fat, bone, liver, stomach, heart, and spleen, 1 h post-injection, read-out: Uptake values for the brain, muscle, fat, bone, liver, stomach, heart, and spleen) was under 1 %ID/g and the tissue uptake at 1 h ([2]; fat, 100 ug, 1 h blocked: co-injected with 100 µg of [D-Phe6,Leu-NHEt13,des-Met14]Bombesin(6-14), n = 4, read-out: Fat uptake) was 0.07 ± 0.02 %ID/g. The tissue uptake at 1 h ([2]; fat, 1 h post-injection, n = 4, read-out: Fat uptake) was 0.1 ± 0.03 %ID/g, the tissue uptake at 1 h ([2]; heart, 100 ug, 1 h blocked: co-injected with 100 µg of [D-Phe6,Leu-NHEt13,des-Met14]Bombesin(6-14), n = 4, read-out: Heart uptake) was 0.16 ± 0.04 %ID/g and the tissue uptake at 1 h ([2]; heart, 1 h post-injection, n = 4, read-out: Heart uptake) was 0.14 ± 0.02 %ID/g. For the same compound, the tissue uptake at 1 h ([2]; intestines, 100 ug, 1 h blocked: co-injected with 100 µg of [D-Phe6,Leu-NHEt13,des-Met14]Bombesin(6-14), n = 4, read-out: Intestines uptake) was 0.28 ± 0.07 %ID/g, the tissue uptake at 1 h ([2]; intestines, 1 h post-injection, n = 4, read-out: Intestines uptake) was 0.6 ± 0.12 %ID/g and the tissue uptake at 1 h ([2]; kidneys, 100 ug, 1 h blocked: co-injected with 100 µg of [D-Phe6,Leu-NHEt13,des-Met14]Bombesin(6-14), n = 4, read-out: Kidneys uptake) was 1.99 ± 0.59 %ID/g. The tissue uptake at 1 h ([2]; kidneys, 1 h post-injection, n = 4, read-out: Kidneys uptake) was 2.43 ± 0.16 %ID/g, the tissue uptake at 1 h ([2]; lungs, 100 ug, 1 h blocked: co-injected with 100 µg of [D-Phe6,Leu-NHEt13,des-Met14]Bombesin(6-14), n = 4, read-out: Lungs uptake) was 0.39 ± 0.1 %ID/g and the tissue uptake at 1 h ([2]; lungs, 1 h post-injection, n = 4, read-out: Lungs uptake) was 0.39 ± 0.1 %ID/g. For the same compound, the tissue uptake at 1 h ([2]; pancreas, 100 ug, 1 h blocked: co-injected with 100 µg of [D-Phe6,Leu-NHEt13,des-Met14]Bombesin(6-14), n = 4, read-out: Pancreas uptake) was 0.15 ± 0.03 %ID/g, the tissue uptake at 1 h ([2]; pancreas, 1 h post-injection, n = 4, read-out: Pancreas uptake) was 1.3 ± 0.14 %ID/g and the tissue uptake at 1 h ([2]; spleen, 100 ug, 1 h blocked: co-injected with 100 µg of [D-Phe6,Leu-NHEt13,des-Met14]Bombesin(6-14), n = 4, read-out: Spleen uptake) was 0.18 ± 0.05 %ID/g. It also gave a tissue uptake at 1 h ([2]; spleen, 1 h post-injection, n = 4, read-out: Spleen uptake) of 0.27 ± 0.1 %ID/g, a tissue uptake at 1 h ([2]; stomach, 100 ug, 1 h blocked: co-injected with 100 µg of [D-Phe6,Leu-NHEt13,des-Met14]Bombesin(6-14), n = 4, read-out: Stomach uptake) of 0.13 ± 0.06 %ID/g and a tissue uptake at 1 h ([2]; testes, 100 ug, 1 h blocked: co-injected with 100 µg of [D-Phe6,Leu-NHEt13,des-Met14]Bombesin(6-14), n = 4, read-out: Testes uptake) of 0.21 ± 0.16 %ID/g. The “intact fraction in plasma” value ([3]; mouse plasma, n = 3) was 12.7 ± 2.93%, the “intact tracer in urine” value ([3]; mouse urine) was “no intact” and the logD [4] was -3.21 ± 0.03. For the same compound, the “visualization of PC-3 tumor xenografts in PET images” value (PC-3 tumor xenografts [5]) was “clearly visualized” and the excretion pathway (PC-3 tumor xenografts [5]; PET images) was “primarily excreted via the renal pathway”.
